From BindingDB's records for doi:10.1124/jpet.104.066688 (Acadia Pharmaceuticals, 2004)

Target: T1, 5-hydroxytryptamine receptor 2C (Homo sapiens, UniProt P28335)
T1 sequence (P28335 whole entry): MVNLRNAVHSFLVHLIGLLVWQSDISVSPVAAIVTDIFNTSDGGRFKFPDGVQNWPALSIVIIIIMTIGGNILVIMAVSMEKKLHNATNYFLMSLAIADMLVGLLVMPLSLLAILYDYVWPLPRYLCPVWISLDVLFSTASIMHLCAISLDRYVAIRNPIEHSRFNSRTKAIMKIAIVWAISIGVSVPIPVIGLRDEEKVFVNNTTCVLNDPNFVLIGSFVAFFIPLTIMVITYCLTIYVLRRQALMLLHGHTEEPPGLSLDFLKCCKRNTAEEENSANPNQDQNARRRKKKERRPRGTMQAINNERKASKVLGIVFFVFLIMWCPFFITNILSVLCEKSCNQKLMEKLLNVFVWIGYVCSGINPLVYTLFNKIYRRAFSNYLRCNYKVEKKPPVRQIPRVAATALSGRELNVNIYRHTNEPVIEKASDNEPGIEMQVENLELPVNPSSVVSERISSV

Ki: 2.9 nM
SMILES: COc1ccc(CC(=O)N(Cc2ccc(C)cc2)C2CCN(C)CC2)cc1 [N-(4-Methylbenzyl)-N-(1-methyl-4-piperidinyl)-4-methoxybenzeneacetamide]
